Assays:
BxPC3 cells = assay: Cellular proliferation / cell survival micro-cytotoxicity; format: cell-based, Human
[1] = test system: AKT phosphorylation at Ser473 in BxPC3 cells; assay: Detection of pAKT; format: cell-based, Human; details: 10 μM, 4 h

## CCCCCCCCCCCCc1ccc(S(=O)(=O)Nc2ccccc2)cc1 [Compound 45]
BxPC3 cells
  Inhibition of BxPC-3 cell proliferation, in words: did inhibit BxPC-3 cell proliferation
[1]
  Inhibition of AKT phosphorylation at Ser473 (pAKT), in words: did not inhibit the production of pAKT

From PMC3088502 (Bioorganic & medicinal chemistry, 2011)
